Assay results as given in ChEMBL document CHEMBL4024705 (Bioorg Med Chem Lett, 2017).

Legend:
Liver [1] = test: Stability of the compound in mouse liver microsomes assessed as compound remaining; type: ADME, microsome
Liver [2] = test: Stability of the compound in human liver microsomes assessed as compound remaining; type: ADME, microsome
Liver [3] = test: Stability of the compound in rat liver microsomes assessed as compound remaining; type: ADME, microsome
[4] = Permeability of the compound by PAMPA; type: physicochemical; conditions: read-out: permeability

| SMILES | Stability (Liver [1]) [%] | Stability (Liver [2]) [%] | Stability (Liver [3]) [%] | Papp [4] [×10⁻⁶ cm/s] |
| --- | --- | --- | --- | --- |
| [2H]C([2H])([2H])C1([2H])N(c2cc(-c3cc(C(F)(F)F)c4c(N)ncnn34)ccc2C#N)C(=O)C(C)(C)OC1([2H])[2H] (centres undefined) | 0 to 18 | 77 to 91 | 32 to 44 |  |
| [2H]C1([2H])OC(C)(C)C(=O)N(c2cc(-c3cc(C(F)(F)F)c4c(N)ncnn34)ccc2C#N)C1([2H])[2H] | 74 | 91 | 75 |  |
| C[C@H]1COC(C)(C)C(=O)N1c1cc(-c2cc(C(F)(F)F)c3c(N)ncnn23)ccc1C#N | 1 | 23 | 1 |  |
| [2H]C([2H])([2H])C1([2H])N(c2cc(-c3cc(Cl)c4c(N)ncnn34)ccc2C#N)C(=O)C(C)(C)OC1([2H])[2H] (centres undefined) | 0 to 28 | 83 to 87 | 34 to 37 |  |
| C[C@@H]1CN(c2cc(-c3cc(Cl)c4c(N)ncnn34)ccc2C#N)C(=O)C(C)(C)O1 | 43 | 61 | 5 |  |
| C[C@H]1CN(c2cc(-c3cc(Cl)c4c(N)ncnn34)ccc2C#N)C(=O)C(C)(C)O1 | 0 | 18 | 0 |  |
| C[C@H]1OC(C)(C)C(=O)N(c2cc(-c3cc(C(F)(F)F)c4c(N)ncnn34)ccc2C#N)[C@H]1C | 4 | 50 | 2 | 65.9 |
| C[C@@H]1COC(C)(C)C(=O)N1c1cc(-c2cc(Cl)c3c(N)ncnn23)ccc1C#N | 28 | 92 | 25 |  |
| C[C@H]1CN(c2cc(-c3cc(C(F)(F)F)c4c(N)ncnn34)ccc2C#N)C(=O)C(C)(C)O1 | 24 | 85 | 29 |  |
| [2H]C1([2H])OC(C)(C)C(=O)N(c2cc(-c3cc(Cl)c4c(N)ncnn34)ccc2C#N)C1([2H])[2H] | 58 | 94 | 76 |  |
| CC[C@H]1COC(C)(C)C(=O)N1c1cc(-c2cc(Cl)c3c(N)ncnn23)ccc1C#N | 1 | 53 | 4 |  |
